Columns and labels:
[1] = electrophoretic transdermal delivery from hydrogel formulations in device according to FIG. 1 (examples 2a, 2b, 2c; passive comparative example 2a); assay type: in vitro ADME, mouse; details: for total amount of Tapentadol permeated, electrophoretic delivery: after 24 hours, 60 s pulses after 1.5 and 16.5 hours
Excerpt: The rate of electrophoretic transdermal delivery of three different exemplary Tapentadol hydrochloride containing hydrogel formulations A, B and C has been investigated in example 2a, 2b and 2c. Further, the rate of passive transdermal delivery of a corresponding Tapentadol hydrochloride containing hydrogel formulation has been investigated in a comparative experiment 2a.
(§1) The linearity of the method was verified by calibration with an aqueous solution of Tapentadol hydrochloride.
The hydrogel formulation B has been placed in an electrophoretic transdermal delivery system according to FIG. 1. The following components were used for preparing the electrophoretic device according to FIG. 1:
silver electrodes as pair of electrodes consisting of an active electrode (1a) and a counter electrode (2a) (silver gauze, 1024 mesh/cm^2, 0.12 wire diameter, 99.9% Ag, 18 mm diameter), a foam ring (9) (Alveolit TA 1001 005 White, 95 kg/m^3, 22 mm outer diameter, 16 mm inner diameter), hydrogel formulation B as drug reservoir (3), a teflon ring as barrier material (10) (thickness 1 mm, outer diameter 16 mm, inner diameter 11 mm), silicone adhesive Bio PSA-7 4502 as adhesive layer (4a), which has been in contact with a removable protective layer prior to use (transparent PETP foil manufactured by 3M®, 74 μm, with one-side fluorination, 22 mm diameter), acrylate adhesive DuroTAK 387-2054 as a second adhesive layer (8), a PET foil as surface layer (7) (Loparex PET foil, 75 μm, 105 g/m^2, 22 mm diameter).
Two wires were soldered to the electrodes and connected to a conventional current source as electric power source (6a) (Voltakraft® laboratory power supply DIGI 35).
Transdermal delivery experiments across mouse skin have been performed after two short current pulses (2 V) have been applied for 2 s after 1.5 hour and for 2 s after 16.5 hours.
For comparison, the hydrogel formulation B or A has been placed in an electrophoretic transdermal delivery system according to FIG. 1 and passive transdermal delivery experiments to mouse skin have been performed, i.e. no electric current has been applied to these systems (passive control experiments). This experiment has been performed twice for formulation B (compB-1 and compB-2) and once in case of formulation A (compA) (comparative example 2a) as indicated in FIG. 4 and FIG. 5.
The hydrogel formulation B has been placed in an electrophoretic transdermal delivery system according to FIG. 1 comprising the same components as used for example 2a and comparative example 2a.
Transdermal delivery experiments across mouse skin have been performed after two current pulses have been applied. […]

[2] = HPLC purity of Tapentadol in exhausted hydrogel after electric-field-assisted administration (example 4); assay type: physicochemical
[3] = preliminary clinical trials: serum concentration and pain treating effect (visual analog scale); assay type: in vivo, human
Excerpt: Low serum concentrations of Tapentadol suffice to show an effect in individuals that are relatively sensitive and higher serum concentrations of Tapentadol are needed to show an effect in persons that are relatively unsensitive.

[4] = combined electrophoretic and iontophoretic transdermal delivery from hydrogel formulation C in device according to FIG. 3 (examples 3a, 3b, 3c); assay type: in vitro ADME, mouse
Excerpt: The rate of combined iontophoretic and electrophoretic transdermal delivery of aTapentadol hydrochloride containing hydrogel formulation has been investigated in examples 3a, 3b and 3c.
as §1
The hydrogel formulation C (as described in example 2a) has been placed in a combined electrophoretic and iontophoretic device according to FIG. 3. The following components were used for preparing the inventive electrophoretic and iontophoretic device according to FIG. 3:
silver electrodes as pair of electrodes consisting of an active electrode (1a) and a counter electrode (2a) (silver gauze, 1024 mesh/cm^2, 0.12 wire diameter, 99.9% Ag, 18 mm diameter and 14 mm diameter, respectively), an additional silver ring electrode as an auxiliary electrode (silver gauze, 1024 mesh/cm^2, 0.12 wire diameter, 99.9% Ag, 20 mm outer diameter and 16 mm inner diameter, respectively), a hydrogel formulation (comprising 2.5%-wt. Klucel® HF and 0.1%-wt. sodium chloride, having a pH value of 7.0) as additional reservoir (15) being in contact with the silver ring electrode, a foam ring as (9) (Alveolit TA 1001 005 White, 95 kg/m^3, 24 mm outer diameter, 20 mm inner diameter), hydrogel formulation C as drug reservoir (3), teflon ring as barrier material (10) (thickness 1 mm, outer diameter 16 mm, inner diameter 11 mm and, thickness 0.5 mm, outer diameter 20 mm, inner diameter 16 mm, respectively), silicone adhesive Bio PSA-7 4502 as adhesive layer (4a), which has been in contact with a removable protective layer prior to use (transparent PETP foil manufactured by 3M®, 74 μm, with one-side fluorination, 24 mm diameter), acrylate adhesive DuroTAK 387-2054 as a second adhesive layer (8), a PET foil as surface layer (7) (Loparex PET foil, 75 μm, 105 g/m^2, 24 mm diameter).
Three wires were soldered to the electrodes and connected to a conventional current source as electric power source (6a) (Voltakraft® laboratory power supply DIGI 35).
A transdermal delivery experiment across mouse skin has been performed. In the first electrophoretic phase, only the silver electrodes as pair of electrodes consisting of an active electrode (1a) and a counter electrode (2a) were connected to the current supply. After application of 2.5 hours a single pulse having a pulse length of 60 s at a constant voltage of 3 V has been applied. After application of said pulse both electrodes were disconnected from the voltage generator. In the second iontophoretic phase following the electrophoretic phase, the counter electrode (2a) of the electrophoretically used pair of silver electrodes (1a and 2a) is used as an active electrode (1b) and the additional silver ring electrode is used a counter electrode (2b). A single pulse having a pulse length of 60 s at a constant voltage of 3 V has been applied in the iontophoretic phase.
The hydrogel formulation C (as described in example 2a) has been placed in a combined electrophoretic and iontophoretic device according to FIG. 3. The same components were used for preparing the inventive combined electrophoretic and iontophoretic device as described in example 3a.
Three transdermal delivery experiments (E-1, E2 and E3 as example 3b) to mouse skin have been performed in order to directly assess differences between a solely electrophoretic transdermal delivery and a combined electrophoretic and iontophoretic transdermal delivery as indicated in FIG. 13 and FIG. 14: […]

[5] = exhausted hydrogel of F-3 of example 3c, HPLC

Question: With `CC[C@@H](c1cccc(O)c1)[C@@H](C)CN(C)C` [Tapentadol, (−)-(1R,2R)-3-(3-dimethyl-amino-1-ethyl-2-methyl-propyl)-phenol] as the compound, how does the “total amount of Tapentadol permeated, electrophoretic delivery” value (“total amount … electrophoretic delivery” below) ([1]; B-5: formulation B, 2 V) read?
Answer: more than 300 μg/cm^2

Question: What about the “total amount … electrophoretic delivery” value ([1]; C-3: formulation C, 5 V) of the same compound?
Answer: 670 μg/cm^2

Question: And the “increase of cumulative skin permeation by electrophoresis versus passive delivery” value ([1]; hydrogel formulation B, example 2a (2 V pulses of 2 s after 1.5 and 16.5 hours) vs comparative example 2a, from FIG. 4)?
Answer: 5-10 fold

Question: What about the “Tapentadol remaining within the transdermal delivery system” value ([1]; over 24 hours of administration, examples 2a, 2b and 2c) of the same compound?
Answer: about 90 wt.-%

Question: And the “electrically induced degradation of Tapentadol” value ([2]; during electric-field administration of the device)?
Answer: does not induce a significant degradation

Question: And the Tapentadol content [2, 5]?
Answer: 95.3%

Question: What about the sum of impurities [2, 5] of the same compound?
Answer: 4.7%

Question: What about the “visual analog scale (VAS) in a population mean” value ([3]; at serum concentration of about 5 ng·ml-1) of the same compound?
Answer: approximately −2 mm

Question: And the “visual analog scale (VAS) in a population mean” value ([3]; at serum concentration of about 300 ng·ml-1)?
Answer: approximately −15 mm

Question: And the “fall-off of the drug flux” value ([4]; E-2, after 18 hours compared to the maximum at about 6 hours)?
Answer: about 50%

Question: What about the “total amount of Tapentadol permeated, combined electrophoretic and iontophoretic delivery” value ([4]; after 24 hours, D-1: formulation C, 60 s 3 V electrophoretic pulse after 2.5 hours then 60 s 3 V iontophoretic pulse, mouse skin probably injured) of the same compound?
Answer: 430 μg/cm^2

Question: And the “total amount … electrophoretic delivery” value ([4]; after 24 hours, E-2: formulation C, four 60 s 3 V electrophoretic pulses (0, 15.75, 18, 20.75 h))?
Answer: more than 700 μg/cm^2

Question: And the “total amount of Tapentadol permeated, combined electrophoretic and iontophoretic delivery” value ([4]; after 24 hours, E-3: formulation C, four 60 s 3 V electrophoretic pulses (0, 15.75, 18, 20.75 h) each followed by 9 V iontophoretic pulse)?
Answer: more than 800 μg/cm^2

Question: And the “total amount of Tapentadol permeated, combined electrophoretic and iontophoretic delivery” value ([4]; after 24 hours, F-3: formulation C, four 60 s 4 V electrophoretic pulses (0, 2.5, 5.5, 21.5 h) each followed by 9 V iontophoretic pulse)?
Answer: about 1500 μg/cm^2
